Assay [1] deals with HUVEC cells. The experiment in a line: γH2AX DNA damage response in HUVEC cells (Western blot). The class given is cell-based. The protocol:
(2) The transfection system of a 3.5 cm petri dish was prepared as follows: 1 μl of siRNA Oligo/Red (concentration of the original solution was 20 μM) was added to an EP tube containing 250 μl of pure Opti-MEM and mixed, and 1.5 μl of RNAiMAX (transfection Reagent) was added to the flow tube containing 250 μl of pure Opti-MEM and mixed, and then all the liquid in the EP tube was added to the flow tube and mixed, and allowed to stand at room temperature for 15 min.
(3) The prepared transfection system was added to a 3.5 cm culture dish, and the cells were cultured for 24-48 h, then the samples were collected and the total cell protein was extracted, and the knockdown effect of the gene was identified by Western Blotting.
(3) Add 150 μl of total protein lysate to each cell sample to make the lysate fully contact with the cells, scrape off the cell lysate with a scraper, collect it into a pre-cooled EP tube, and take an ice bath for 15 min.
(§1) Protein electrophoresis gels are double-layered gels, including an upper stacking gel and a lower separating gel. The concentration of the stacking gel is 5%, and the concentration of the separating gel is determined according to the molecular weight of the target protein. In this study, large molecular weight proteins (LRP5/6, β-catenin, β-arrestin1/2) used 8%-5% double-layer gel, and small molecular weight proteins (γH2AX, p53, p21, Bcl-2, Bax, Cleaved Caspase-3) used 12%-5% double-layer gel. In addition, the number of wells (10 wells or 15 wells) and thickness (1 mm or 1.5 mm) of the preparation gel were selected according to the number and volume of protein samples loaded. The gel formulation is shown in the experimental material section, and the preparation steps are as follows: […]
On the technique in general: A western blot detects proteins with antibodies after separation by electrophoresis.

Assay [2] concerns β-arrestin1/2. The experiment in a line: β-arrestin1/2 translocation in HUVEC cells (Western blot). It counts as cell-based. To be noted: BIM-46187 pretreatment 1 μM for 30 min. The protocol:
(5) Add 100 μl (cell) or 200 μl (tissue) A solution to each sample, and resuspend the cell pellet with a pipette to completely disperse the pellet. The tissue pellet should be fully homogenized on ice with a homogenizer, and the ice bath should be used for 15 min.
(10) Add 50 μl (cells) or 100 μl (tissue) B solution to each sample, resuspend the pellet in Vortex at the highest speed for 10 s, ice bath for 10 min, and repeat twice to fully extract membrane proteins.
as §1

The subject of assay [3] is wild-type mice heart. The experiment in a line: Local injection of Dkk1 protein into the heart combined with MDC or BIM-46187. The class given is in vivo, mouse. The protocol:
In the experiment of local injection of Dkk1 purified protein into the heart combined with MDC intervention, 10-week-old wild-type male mice were selected, the left chest was depilated, and intraperitoneal injection of MDC (diluted in sterile PBS, 10 mg/kg) or the corresponding volume of DMSO (diluted in sterile PBS) and injected at the same time every day thereafter. After 1 h of MDC intervention, cardiac Dkk1 protein injection was performed. The mice were given continuous inhalation anesthesia with 1% isoflurane and oxygenated with a ventilator, and then the fourth intercostal space near the sternum was opened to expose the heart. Using a 200 μl microsyringe, Dkk1 (10 μg of Dkk1 per heart, dissolved in 30 μl PBS) or an equal volume of PBS was injected locally at three sites in the heart. Of these, two sites are on the border around the left ventricle, and one site enters the myocardium of the left ventricle. After the injection, the wound was sutured, the anesthesia was removed, and the mice were awake. After MDC was continuously intervened for 2 days, the mice were anesthetized and the materials were collected.
In addition to injecting Dkk1 protein alone into the heart, we also need to perform experiments of local injection of Dkk1 combined with BIM-46187 into mouse hearts. According to the experimental grouping, it was divided into cardiac injections of four different solutions, including PBS, Dkk1, BIM-46187, and a mixture of Dkk1 and BIM-46187. The dosage of Dkk1 per heart is 10 μg, and the dosage of BIM-46187 is 2.4 ng, diluted with 30 μl PBS and then injected into the heart. The specific operation steps are the same as above. After the injection, the wound was sutured, the anesthesia was removed, and the mice were awake. Two days after the injection, the mice were anesthetized and the materials were collected.

Assay [4] relates to STZ-induced diabetic mice. The assay can be described thus: STZ-induced type 1 diabetes mouse model with insulin or MDC rescue. It counts as in vivo. How it is done: STZ-induced diabetes is a chemical modeling method for diabetes. Its full name is streptozotocin, which is a broad-spectrum antibiotic isolated from achromatic streptomycin. It can selectively damage islet 13 cells in a short period of time, causing 13 cell necrosis, resulting in varying degrees of blood insulin drop and blood sugar rise, resulting in insulin-dependent type 1 diabetes mellitus. […] Modelling criteria are non-fasting blood glucose values above 13.8 mM (250 mg/dl). The modeling steps are as follows: (4) According to the body weight, mice in the model group were injected intraperitoneally with 2% STZ-citric acid solution (160 mg/kg), and the mice in the control group were intraperitoneally injected with the corresponding volume of citrate buffer. 2 h after the injection, the mice were fed back. […] Specific steps are as follows: (3) According to the body weight, the insulin rescue group was subcutaneously injected with diluted insulin (1 U/kg/day), once a day at the same time for 7 consecutive days, and the control group was given a corresponding volume of normal saline. […] Body weight and random blood glucose were measured at different time points after injection. […] (1) Sample preparation: Store the freshly obtained mouse blood in an EDTA anticoagulation tube, stand at room temperature for 10 min, centrifuge at 1000 g for 15 min, and collect the supernatant, namely plasma. If it cannot be detected immediately, it should be subpackaged and stored at −80° C. to avoid repeated freezing. If precipitation occurs during storage, it should be fully thawed at room temperature before use, and centrifuged again.

For assay [5], the system named is CT26 tumor-bearing mice. The assay can be described thus: Tumor cachexia in CT26 tumor-bearing mice: tumor-free body weight, muscle weight, muscle membrane proteins. It counts as in vivo, mouse.
The test system of assay [6] is LRP6 and Kremen2. The assay can be described thus: Intramuscular injection of Dkk1, Western blot of membrane LRP6 and Kremen2. It counts as in vivo, mouse. To be noted: simultaneous injection with Dkk1. How it is done: Wild-type mice and β-arrestin2+/−KO mice were injected into the left quadriceps (0.25 mg/kg) and an equal volume of PBS was injected into the right leg as controls. MDC (10 mg/kg), IGFBP-4/H95P (1.7 mg/kg) or PBS were injected in combination with Dkk1 as a control to observe the effects of drugs on Dkk1-induced signal transduction. After 48 hours, the mice were sacrificed, and the left and right quadriceps were taken to measure the […].
Membrane proteins were extracted according to the instructions of Membrane Protein Extraction Kit (Sangon Biotech, China). Western blot analysis omitted. Antibodies for WB analysis were purchased from Cell Signaling Technology and Proteintech.

“Also recorded” adds a separate entry of the source.

Data on four molecules can be found in patent US20220349876A1, “USE OF DKK1 INHIBITOR IN PREVENTION AND/OR TREATMENT OF TUMOR CACHEXIA AND DISEASES ASSOCIATED WITH DIABETES” (SHANGHAI DONGTSU BIOSCIENCES CO., LTD., priority 2019, published 2022).

Consider `N[C@@H](CSSC[C@H](N)C(=O)N1CCn2cc(-c3ccccc3)nc2[C@@H]1CC1CCCCC1)C(=O)N1CCn2cc(-c3ccccc3)nc2[C@@H]1CC1CCCCC1` [BIM-46187], for which the “Dkk1-induced γH2AX activation” value in assay [1] (BIM-46187 pretreatment 1 μM, 30 min) is reported as “inhibited”. Also, the “Dkk1-induced translocation of β-arrestin1/2” value in assay [2] is on record as “able to prevent Dkk1-induced translocation of β-arrestin1/2”. In addition, the “Dkk1-induced cardiac β-arrestin1/2 translocation” value in assay [3] (Dkk1 intracardiac injection with MDC or BIM-46187) is reported as “inhibited; also recorded: significantly prevent Dkk1 direct endocytosis of LRP5/6-induced cardiac β-arrestin1/2 translocation changes”. Also, in assay [3] (Dkk1 intracardiac injection with MDC pretreatment or combined with BIM-46187), the “Dkk1-induced cardiac changes (LRP5/6, γH2AX, p53, p21)” value is on record as “effectively inhibit Dkk1-induced cardiac injury; also recorded: significantly prevent”.
Consider insulin, for which, in assay [4] (STZ diabetic mice), the “blood 8-OHdG (ELISA)” value is recorded as “greatly attenuated”; the blood glucose concentration entry was “reduces STZ-induced blood glucose elevation; also recorded: decreased from the first day of treatment and remained at a low level”; the “body weight loss of diabetic mice” value is “promoted the gradual recovery of the weight loss; also recorded: suppressed”. Besides, the “blood Dkk1 (ELISA)” value in assay [4] (STZ diabetic mice, daily insulin) is given as “brought high blood Dkk1 concentrations back to basal levels; also recorded: at the basal level”. In assay [4] (STZ diabetic mice, heart), the “cardiac p53, p21, Bax/Bcl-2 and Cleaved Caspase-3” value was “greatly attenuated”; the “cardiac γH2AX” value is on record as “decrease in γH2AX signaling”; the “damage to myocardial structure (HE staining)” value is recorded as “prevented”; the “translocation of cardiac β-arrestin1/2 in diabetic hearts” value is “able to reverse this translocation”. In addition, the “LRP5/6 on the cardiac membrane” value in assay [4] (STZ diabetic mice, heart, Western blot) was “started to be up-regulated”. Besides, in assay [4] (substance alone (FIG. 19G)), the “translocation of insulin receptors on the cardiac membrane or in the plasma” value was “does not induce translocation of insulin receptors”.

B1: IGFBP4/H95P: recombinant mutant IGFBP4/H95P protein, which lost its IGF-binding ability, can bind to LRP6 on the membrane and prevent Dkk1 signaling (protein, UniProt P22692 22-258, looked up, variant H95P)
Insulin-like growth …: DEAIHCPPCSEEKLARCRPPVGCEELVREPGCGCCATCALGLGMPCGVYTPRCGSGLRCYPPRGVEKPLHTLMPGQGVCMELAEIEAIQESLQPSDKDEGDHPNNSFSPCSAHDRRCLQKHFAKIRDRSTSGGKMKVNGAPREDARPVPQGSCQSELHRALERLAASQSRTHEDLYIIPIPNCDRNGNFHPKQCHPALDGQRGKCWCVDRKTGVKLPGGLEPKGELDCHQLADSFRE
As to B1, the “loss of body weight and muscle weight” value in assay [5] (listed as IGFBP4) is “reverse tumor-induced loss of tumor-free body weight and muscle atrophy”; in assay [5] (listed as IGFBP-4/H95P), “completely prevents the decrease in body weight and muscle weight”. Further, the “Dkk1-induced endocytosis / downregulation of membrane LRP6 and Kremen2” value in assay [6] is “inhibit downregulation of membrane LRP6 expression induced by Dkk1”.

B2: LRP6N: soluble protein of the extracellular segment of LRP6 (LRP6 ectodomain) (protein, UniProt O75581 20-1370, looked up)
extracellular domain: APLLLYANRRDLRLVDATNGKENATIVVGGLEDAAAVDFVFSHGLIYWSDVSEEAIKRTEFNKTESVQNVVVSGLLSPDGLACDWLGEKLYWTDSETNRIEVSNLDGSLRKVLFWQELDQPRAIALDPSSGFMYWTDWGEVPKIERAGMDGSSRFIIINSEIYWPNGLTLDYEEQKLYWADAKLNFIHKSNLDGTNRQAVVKGSLPHPFALTLFEDILYWTDWSTHSILACNKYTGEGLREIHSDIFSPMDIHAFSQQRQPNATNPCGIDNGGCSHLCLMSPVKPFYQCACPTGVKLLENGKTCKDGATELLLLARRTDLRRISLDTPDFTDIVLQLEDIRHAIAIDYDPVEGYIYWTDDEVRAIRRSFIDGSGSQFVVTAQIAHPDGIAVDWVARNLYWTDTGTDRIEVTRLNGTMRKILISEDLEEPRAIVLDPMVGYMYWTDWGEIPKIERAALDGSDRVVLVNTSLGWPNGLALDYDEGKIYWGDAKTDKIEVMNTDGTGRRVLVEDKIPHIFGFTLLGDYVYWTDWQRRSIERVHKRSAEREVIIDQLPDLMGLKATNVHRVIGSNPCAEENGGCSHLCLYRPQGLRCACPIGFELISDMKTCIVPEAFLLFSRRADIRRISLETNNNNVAIPLTGVKEASALDFDVTDNRIYWTDISLKTISRAFMNGSALEHVVEFGLDYPEGMAVDWLGKNLYWADTGTNRIEVSKLDGQHRQVLVWKDLDSPRALALDPAEGFMYWTEWGGKPKIDRAAMDGSERTTLVPNVGRANGLTIDYAKRRLYWTDLDTNLIESSNMLGLNREVIADDLPHPFGLTQYQDYIYWTDWSRRSIERANKTSGQNRTIIQGHLDYVMDILVFHSSRQSGWNECASSNGHCSHLCLAVPVGGFVCGCPAHYSLNADNRTCSAPTTFLLFSQKSAINRMVIDEQQSPDIILPIHSLRNVRAIDYDPLDKQLYWIDSRQNMIRKAQEDGSQGFTVVVSSVPSQNLEIQPYDLSIDIYSRYIYWTCEATNVINVTRLDGRSVGVVLKGEQDRPRAVVVNPEKGYMYFTNLQERSPKIERAALDGTEREVLFFSGLSKPIALALDSRLGKLFWADSDLRRIESSDLSGANRIVLEDSNILQPVGLTVFENWLYWIDKQQQMIEKIDMTGREGRTKVQARIAQLSDIHAVKELNLQEYRQHPCAQDNGGCSHICLVKGDGTTRCSCPMHLVLLQDELSCGEPPTCSPQQFTCFTGEIDCIPVAWRCDGFTECEDHSDELNCPVCSESQFQCASGQCIDGALRCNGDANCQDKSDEKNCEVLCLIDQFRCANGQCIGKHKKCDHNVDCSDKSDELDCYPTEEPAPQA
modifications: extracellular domain
Regarding B2, the “γH2AX signaling enhanced by H2O2 in the presence of Dkk1” value in assay [1] (Dkk1 then H2O2 50 μM) is given as “significantly attenuated”. In assay [1] (H2O2 50 μM), the “H2O2-activated γH2AX signaling in control and β-catenin-knockdown cells” value is reported as “no effect”. In assay [1] (H2O2 50 μM, LRP6N pretreatment), the “γH2AX signaling in MESD knockdown cells enhanced by H2O2” value is recorded as “significantly attenuats this change” and the “γH2AX signaling of LRP5/6 knockdown cells further activated by H2O2” value is on record as “significantly attenuated”. Further, in assay [1] (H2O2 50 μM, without Dkk1), the “H2O2-induced γH2AX activation” value is recorded as “does not prevent H2O2-induced γH2AX activation”. Moreover, the “γH2AX upregulation induced by knockdown of LRP5/6” value in assay [1] (LRP6N pre-added to culture medium) is “reverses cellular DNA damage induced by knockdown of LRP5/6; also recorded: significantly attenuated”. The “γH2AX response by the substance itself” value in assay [1] (no Dkk1, no H2O2) is “does not elicit γH2AX responses”. The “Dkk1-induced γH2AX activation” value in assay [1] (pretreatment with MDC or LRP6N protein) is on record as “inhibits Dkk1-induced γH2AX activation”.
